Type in all cases: cell-based
One assay has as its target T1, EP4 (Homo sapiens, UniProt P35408).
T1 construct: BT549 breast cancer cells, express high endogenous EP4 levels and very low EP2 levels; host or cells: BT549 breast cancer cells
Put plainly: hEP4 cAMP Assay (BT549 breast cancer cells, HTRF cAMP, PGE2 6 nM). Conditions: antagonistic activity, PGE2 6 nM (EC80). The method in brief:
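BT549 cells (endogenous EP4, very low EP2) in HBSS/20 mM HEPES/0.2% BSA/2 mM IBMX, pre-incubated 45 min RT with compound, then stimulated 30 min RT with PGE2 6 nM (EC80). cAMP read by HTRF competitive immunoassay (665/620 nm), converted via calibrator to % of DMSO control; IC50 from duplicate dose-response curves.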
On the technique in general: In TR-FRET formats the signal depends on donor and acceptor labels being close together.

A further assay deals with T2, EP2 (Homo sapiens, UniProt P43116).
T2 construct: SF295 glioblastoma cells express high endogenous EP2 and no EP4; host or cells: SF295 glioblastoma cells
T2 sequence (P43116 whole entry): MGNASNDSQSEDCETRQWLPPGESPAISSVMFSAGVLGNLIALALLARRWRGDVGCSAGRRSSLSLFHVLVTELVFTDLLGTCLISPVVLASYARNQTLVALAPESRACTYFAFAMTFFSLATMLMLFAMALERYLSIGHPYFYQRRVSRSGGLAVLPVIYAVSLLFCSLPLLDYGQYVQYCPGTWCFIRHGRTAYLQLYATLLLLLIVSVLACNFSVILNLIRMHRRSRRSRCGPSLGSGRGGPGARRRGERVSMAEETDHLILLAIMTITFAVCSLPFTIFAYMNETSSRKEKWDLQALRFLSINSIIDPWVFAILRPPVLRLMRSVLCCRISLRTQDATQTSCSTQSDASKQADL
Put plainly: hEP2 cAMP Assay (SF295 glioblastoma cells, HTRF cAMP, PGE2 75 nM). The following applies: antagonistic activity, PGE2 75 nM (EC80). In outline: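 IC50 values derive from duplicate-point curves of percent cAMP relative to DMSO, read by HTRF (665/620 nm) against a cAMP calibrator. Compounds (30 μM to 0.01 nM ranges) were given 45 min at room temperature before 30 min with 75 nM PGE2, in EP2-only SF295 cells with 2 mM IBMX.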

The next assay concerns the target T3, PTGER4 (EP4) (Homo sapiens, UniProt P35408).
T3 construct: host or cells: HEK 293 (PathHunter, stably transfected)
Put plainly: hEP4 b-Arrestin Assay (PathHunter HEK 293 PTGER4 b-arrestin cells, PGE2 20 nM). Conditions: antagonistic activity, beta-arrestin assay, HEK 293 PTGER4 cells, PGE2 20 nM (EC80); read-out: hEP4 b-arr IC50. In outline:
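PathHunter HEK 293 EP4 b-arrestin enzyme-complementation cells preincubated 15 min at 37° C with compound (10 μM-2 nM or 1 μM-0.2 nM), then stimulated 120 min with 20 nM PGE2 (EC80). Chemiluminescence read; IC50 from duplicate % activity vs DMSO, one-site fit, averaged over repeats.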

Another assay deals with T4, PTGER2 (EP2) (Homo sapiens, UniProt P43116).
T4 construct: host or cells: HEK 293 (PathHunter, stably transfected)
T4 sequence (P43116 whole entry): as above
Kind of assay: hEP2 b-Arrestin Assay (PathHunter HEK 293 PTGER2 b-arrestin cells, PGE2 5 μM). Conditions: antagonistic activity, beta-arrestin assay, HEK 293 PTGER2 cells, PGE2 5 μM (EC80); read-out: hEP2 b-arr IC50. The method in brief:
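PathHunter enzyme-fragment complementation in HEK 293 cells: compounds (10 μM-2 nM or 1 μM-0.2 nM) pre-incubated 15 min at 37 °C, then 5 μM PGE2 (EC80) for 120 min at 37 °C. Chemiluminescence read after 1 h detection; IC50 from duplicate dose-response fits, means of repeats.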

T3 sequence (P35408 whole entry): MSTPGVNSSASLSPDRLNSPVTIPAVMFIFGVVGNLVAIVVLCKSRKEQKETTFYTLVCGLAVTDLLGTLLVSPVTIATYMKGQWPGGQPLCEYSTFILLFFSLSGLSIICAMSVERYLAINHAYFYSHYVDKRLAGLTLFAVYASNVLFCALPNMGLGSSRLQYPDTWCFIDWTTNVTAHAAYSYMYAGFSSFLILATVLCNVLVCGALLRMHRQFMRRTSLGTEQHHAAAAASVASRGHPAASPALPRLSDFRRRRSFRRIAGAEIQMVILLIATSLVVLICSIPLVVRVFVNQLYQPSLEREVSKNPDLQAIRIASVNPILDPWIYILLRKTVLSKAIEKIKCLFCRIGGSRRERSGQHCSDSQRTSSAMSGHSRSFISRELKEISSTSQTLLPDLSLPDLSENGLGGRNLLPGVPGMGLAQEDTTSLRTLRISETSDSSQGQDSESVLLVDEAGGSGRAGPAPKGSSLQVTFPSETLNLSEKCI
T1 sequence (P35408 whole entry): as above

On to `CCOc1cc(-c2cc(NCCc3cccc4nc(C)sc34)ncn2)sc1C(=O)O` [Example 31, 3-Ethoxy-5-{6-[2-(2-methyl-benzothiazol-7-yl)-ethylamino]-pyrimidin-4-yl}-thiophene-2-carboxylic acid], for which the IC50 at EP4 came to 567 nM; against EP2, 190 nM; at PTGER4 (EP4), 1410 nM; on PTGER2 (EP2) it was 201 nM.
The matching figures for `CCOc1cc(-c2cc(NCCc3c(OC)ccc4ccccc34)ncn2)sc1C(=O)O` [Example 4, 3-Ethoxy-5-{6-[2-(2-methoxy-naphthalen-1-yl)-ethylamino]-pyrimidin-4-yl}-thiophene-2-carboxylic acid]: 15 nM, 2 nM, 20 nM and 2 nM.
Regarding `CCOc1cc(-c2cc(NCCc3c(Cl)ccc4cccnc34)ncn2)sc1C(=O)O` [Example 15, 5-{6-[2-(7-Chloro-quinolin-8-yl)-ethylamino]-pyrimidin-4-yl}-3-ethoxy-thiophene-2-carboxylic acid], the IC50 against EP4 is 171 nM; against EP2 it was 25 nM; on PTGER4 (EP4), 192 nM; on PTGER2 (EP2), 27 nM.
The matching figures for `CCOc1cc(-c2cc(NCCc3cccc4c(C)cccc34)ncn2)ccc1C(=O)O` [Example 184, 2-Ethoxy-4-{6-[2-(5-methyl-naphthalen-1-yl)-ethylamino]-pyrimidin-4-yl}-benzoic acid]: 330 nM, 48 nM, 375 nM and 27 nM.
The matching figures for `CCOc1cc(-c2cc(NCCc3ccc(F)c4ccccc34)ncn2)sc1C(=O)O` [Example 21, 3-Ethoxy-5-{6-[2-(4-fluoro-naphthalen-1-yl)-ethylamino]-pyrimidin-4-yl}-thiophene-2-carboxylic acid]: 62 nM, 16 nM, 77 nM and 32 nM.
`CCc1nc(-c2cc(NCCc3c(OC)ccc4ccccc34)ncn2)sc1C(=O)O` [Example 148, 4-Ethyl-2-{6-[2-(2-methoxy-naphthalen-1-yl)-ethylamino]-pyrimidin-4-yl}-thiazole-5-carboxylic Acid]: the IC50 is 548 nM on EP4, 27 nM against EP2, 264 nM at PTGER4 (EP4) and 20 nM at PTGER2 (EP2).
The matching figures for `CCOc1cc(-c2cc(NCCc3ccc(OC)c4ccccc34)ncn2)sc1-c1noc(=O)[nH]1` [Example 141, 3-(3-Ethoxy-5-{6-[2-(4-methoxy-naphthalen-1-yl)-ethylamino]-pyrimidin-4-yl}-thiophen-2-yl)-[1,2,4]oxadiazol-5(4H)-one]: 17 nM, 72 nM, 4 nM and 61 nM.
The matching figures for `CCOc1cc(-c2cc(NCCc3c(C)ccc4cnccc34)ncn2)sc1C(=O)O` [Example 85, 3-Ethoxy-5-{6-[2-(6-methyl-isoquinolin-5-yl)-ethylamino]-pyrimidin-4-yl}-thiophene-2-carboxylic acid]: 130 nM, 32 nM, 244 nM and 30 nM.
In the case of `CSc1cc(-c2cc(NCCc3cccc4c(C)cccc34)ncn2)ccc1C(=O)O` [Example 173, 4-{6-[2-(5-Methyl-naphthalen-1-yl)-ethylamino]-pyrimidin-4-yl}-2-methylsulfanyl-benzoic acid], the IC50 against EP4 turned out to be 140 nM; on EP2 it was 15 nM; on PTGER4 (EP4), 175 nM; on PTGER2 (EP2), 10 nM.
On to `CCOc1cc(-c2cc(NCCc3c(OC)ccc4ncccc34)ncn2)sc1-c1nnn[nH]1` [Example 145, {6-[4-Ethoxy-5-(1H-tetrazol-5-yl)-thiophen-2-yl]-pyrimidin-4-yl}-[2-(6-methoxy-quinolin-5-yl)-ethyl]-amine], for which the IC50 against EP4 is 53 nM; against EP2, 81 nM; on PTGER4 (EP4), 18 nM; at PTGER2 (EP2) it was 16 nM.
The matching figures for `COc1ccc2ccccc2c1CCNc1cc(-c2ccc(C(=O)O)c(OC3CCC3)c2)ncn1` [Example 5, 2-Cyclobutoxy-4-{6-[2-(2-methoxy-naphthalen-1-yl)-ethylamino]-pyrimidin-4-yl}-benzoic acid]: 203 nM, 24 nM, 182 nM and 25 nM.
The matching figures for `CCOc1cc(-c2cc(NCCc3c(OC)ccc4ccccc34)ncn2)sc1-c1noc(=O)[nH]1` [Example 138, 3-(3-Ethoxy-5-{6-[2-(2-methoxy-naphthalen-1-yl)-ethylamino]-pyrimidin-4-yl}-thiophen-2-yl)-[1,2,4]oxadiazol-5(4H)-one]: 8 nM, 6 nM, 4 nM and 3 nM.
`CCOc1cc(-c2cc(NCCc3cccc4ccsc34)ncn2)sc1C(=O)O` [Example 103, 5-[6-(2-Benzo[b]thiophen-7-yl-ethylamino)-pyrimidin-4-yl]-3-ethoxy-thiophene-2-carboxylic acid]: the half-maximal inhibitory concentration (IC50) is 73 nM against EP4, 79 nM at EP2, 314 nM on PTGER4 (EP4) and 33 nM at PTGER2 (EP2).
The matching figures for `CCOc1cc(-c2cc(NCCc3cccc4cnccc34)ncn2)sc1-c1noc(=O)[nH]1` [Example 144, 3-{3-Ethoxy-5-[6-(2-isoquinolin-5-yl-ethylamino)-pyrimidin-4-yl]-thiophen-2-yl}-[1,2,4]oxadiazol-5(4H)-one]: 40 nM, 71 nM, 20 nM and 30 nM.
Turning to `CCOc1cc(-c2cc(NCCc3c(OC)ccc4ncccc34)ncn2)sc1C(=O)O` [Example 65, 3-Ethoxy-5-{6-[2-(6-methoxy-quinolin-5-yl)-ethylamino]-pyrimidin-4-yl}-thiophene-2-carboxylic acid], the IC50 is 75 nM against EP4, 15 nM on EP2, 78 nM at PTGER4 (EP4) and 18 nM on PTGER2 (EP2).
The matching figures for `CCCCOc1cc(-c2cc(NCCc3c(OC)ccc4ccccc34)ncn2)ccc1C(=O)O` [Example 119, 2-Butoxy-4-{6-[2-(2-methoxy-naphthalen-1-yl)-ethylamino]-pyrimidin-4-yl}-benzoic acid]: 200 nM, 12 nM, 222 nM and 18 nM.
The matching figures for `CCOc1cc(-c2cc(NCCc3c(C)ccc4c3cnn4C)ncn2)sc1C(=O)O` [Example 79, 5-{6-[2-(1,5-Dimethyl-1H-indazol-4-yl)-ethylamino]-pyrimidin-4-yl}-3-ethoxy-thiophene-2-carboxylic acid]: 92 nM, 25 nM, 196 nM and 36 nM.
Take `COc1ccc2ccccc2c1CCNc1cc(-c2ccc(C(=O)O)c(OC(F)F)c2)ncn1` [Example 128, 2-Difluoromethoxy-4-{6-[2-(2-methoxy-naphthalen-1-yl)-ethylamino]-pyrimidin-4-yl}-benzoic acid]: the IC50 turned out to be 250 nM at EP4, 3 nM against EP2, 291 nM at PTGER4 (EP4) and 10 nM on PTGER2 (EP2).

Usually IC50 stands for the concentration at which inhibition is half-maximal.

Source of the values: patent publication US11446298B2, “Pyrimidine derivatives” (Idorsia Pharmaceuticals Ltd, priority 2017, dated 2022).
